Several values for one entry are separate records, joined by “and”; a condition that tells them apart may be missing. Identical values can stand only once.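 96-well plates; 48 h exposure; 5 concentrations. Endpoints by linear interpolation between flanking doses. Not reached: highest tested concentration assigned. Abbreviation: GI50, concentration required for 50% inhibition of growth. The concentration for full growth arrest is given as TGI.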
Assays:
Assay in all cases: NCI anticancer screen, dose series, 48 h
HCT-15 colon = test system: HCT-15 colon
IGROV1 ovarian = test system: IGROV1 ovarian
KM12 colon = test system: KM12 colon
MDA-N = test system: MDA-N
NCI/ADR-RES ovarian = test system: NCI/ADR-RES ovarian
OVCAR-4 ovarian = test system: OVCAR-4 ovarian
RPMI-8226 leukemia = test system: RPMI-8226 leukemia
SK-MEL-28 melanoma = test system: SK-MEL-28 melanoma
SNB-19 CNS = test system: SNB-19 CNS
T-47D breast = test system: T-47D breast
UO-31 renal = test system: UO-31 renal

SMILES | TGI (HCT-15 colon) [µM] | TGI (IGROV1 ovarian) [µM] | TGI (KM12 colon) [µM] | TGI (MDA-N) [µM] | TGI (NCI/ADR-RES ovarian) [µM] | TGI (OVCAR-4 ovarian) | TGI (RPMI-8226 leukemia) | TGI (SK-MEL-28 melanoma) | TGI (SNB-19 CNS) [µM] | TGI (T-47D breast) | TGI (UO-31 renal) | GI50 (IGROV1 ovarian) | GI50 (MDA-N) | GI50 (RPMI-8226 leukemia) | GI50 (SK-MEL-28 melanoma) | GI50 (SNB-19 CNS)
COC(=O)C1=C(C(=O)OC)C2OC1C1C2C2(C)C(C)=C(C)C1(C)S2=O (centres undefined) | 20.5 | 39.3 | 45.4 | > 50.3 | > 66.5 | 24.6 µM | 31 µM | 33.8 µM | 66.1 | 22.2 µM | 17.6 µM |  |  |  |  | 
COc1ccc(-c2c(C#N)c(S)n(C3OC(COC(C)=O)C(OC(C)=O)C(OC(C)=O)C3OC(C)=O)c(=O)c2C#N)cc1 (centres undefined) | > 100 | > 100 | > 100 | > 100 | > 100 | > 100 µM and 77.6 µM | > 100 µM and 60.5 µM | > 100 µM and 37.3 µM | > 100 | > 100 µM and 52.5 µM | > 100 µM and 70.1 µM | > 100 µM and 49.7 µM | > 100 µM and 34.8 µM | > 100 µM and 23.4 µM | > 100 µM and 20.8 µM | 34.1 µM and 75.3 µM
CCOC(=O)c1sc2nc(SC)nc3c2c1N=CN3c1ccc(Br)cc1 | > 100 | > 100 | > 100 | > 100 | > 100 | > 100 µM | > 100 µM | > 100 µM | > 100 | > 100 µM | > 100 µM |  |  |  |  | 
Cc1ccc(N=Nc2c3c(c(O)c4ccccc24)CCC(C)(C)O3)cc1 | 67.3 | > 100 | 55.7 | 14.1 | > 100 | 44.5 µM | > 100 µM | 42.1 µM | 42.7 | 60.3 µM | 73.3 µM |  |  |  |  | 
CC12CC(c3ccccc3O1)C(C(=O)Nc1ccc(F)cc1)C(=O)N2 (centres undefined) | > 100 | > 100 | > 100 | > 100 | > 100 | > 100 µM | > 100 µM | > 100 µM | > 100 | > 100 µM | > 100 µM |  |  |  |  | 
CC[C@@H]1CC[C@@H]2[C@H](CC[C@]3(C)[C@@H](O)CC[C@@H]23)[C@H]1C(=O)O | > 100 | > 100 | > 100 | > 100 | > 100 | > 100 µM | > 100 µM | > 100 µM | > 100 | > 100 µM | > 100 µM |  |  |  |  | 
c1cc2nnc1SCCSCCSc1ccc(nn1)SCCSCCS2 | > 100 | > 100 | > 100 | > 100 | > 100 | > 100 µM | > 100 µM | > 100 µM | > 100 | > 100 µM | > 100 µM |  |  |  |  | 
Nc1nc(Cl)cc(NCC2(CO)CC(CCc3ccccc3)C2)n1 (centres undefined) | > 100 | > 100 | > 100 | > 100 | > 100 | > 100 µM | > 100 µM | > 100 µM | > 100 | > 29.1 µM | > 100 µM |  |  |  |  | 
O=C1CC(O)c2c1csc2Br (centres undefined) | 39 | 35.9 | 43.3 | 83.4 | 49 | 96.2 µM | 74.5 µM | 45.1 µM | > 100 | > 100 µM | 53.3 µM |  |  |  |  | 
CCN(CC)CCOC(c1cc(OC)ccc1OC)c1ccc2n1-c1ccccc1OC2 (centres undefined) | 23.6 | 19.7 | 34.2 | 26.5 | 13.9 | 31.9 µM | 16 µM | 29 µM | 31.2 | 51.3 µM | 23 µM |  |  |  |  | 
COC(=O)C1(Cc2ccccc2)Cc2cc3c(cc2C1=O)CCC3 (centres undefined) | > 100 | > 100 | 81.6 | 37.3 | > 100 | > 100 µM | 52.5 µM | > 100 µM | > 100 | 66.6 µM | > 100 µM |  |  |  |  | 
O=c1c2ccccc2[nH]c(=S)n1-c1ccc(N=Nc2cccc3c(O)cccc23)cc1 | > 100 | > 100 | > 100 | > 100 | > 100 | > 100 µM | > 100 µM | > 100 µM | > 100 | > 100 µM | > 100 µM |  |  |  |  | 
CC(=O)C(CN1CCCCC1)C(c1ccccc1)c1c(O)c2ccccc2oc1=O (centres undefined) | > 100 | > 100 | > 100 | > 100 | > 100 | > 100 µM | > 100 µM | > 100 µM | > 100 | > 100 µM | > 100 µM |  |  |  |  | 
CCOC(=O)c1cc(C2(O)CCN(Cc3ccccc3)C2=O)c(-c2cc(C)no2)[nH]1 (centres undefined) | > 100 | > 100 | > 100 | > 100 | > 100 | > 100 µM | > 100 µM | > 100 µM | > 100 | 74.8 µM | > 100 µM |  |  |  |  | 
Cc1ccc2c(c1C)CC1(Cc3c(ccc4c3CCC4)C1=O)C2=O (centres undefined) | > 100 | > 100 | > 100 | > 100 | > 100 | > 100 µM | > 100 µM | > 100 µM | > 100 | > 100 µM | > 100 µM |  |  |  |  | 
CCOP(=O)(OCC)[C@H](O)c1ccsc1 | > 100 | > 100 | > 100 | > 100 | > 100 | > 100 µM | > 100 µM | > 100 µM | > 100 | > 100 µM | > 100 µM |  |  |  |  | 
O=C1CC2C=CC(O)C(C1)C2 (centres undefined) | > 100 | > 100 | > 100 | > 100 | > 100 | > 100 µM | > 100 µM | > 100 µM | > 100 | > 100 µM | > 100 µM |  |  |  |  | 
CC(C)(C)OC(=O)NCCCCC(NC(=O)OCc1ccccc1)C(N)=O (centres undefined) | > 100 | > 100 | > 100 | > 100 | > 100 | > 100 µM | > 100 µM | > 100 µM | > 100 | > 100 µM | > 100 µM |  |  |  |  | 
CCCCN(CC)c1nc(C)nc2c1c(C)c(C)n2-c1c(C)cc(C)cc1C | 27.6 | 29.2 | 36.3 | 38.6 | 27.6 | 37.9 µM | 30.1 µM | 31.5 µM | 33.3 | 25.4 µM | 28.9 µM |  |  |  |  | 
Cc1cc(-c2nc3ccccc3s2)ccc1NS(=O)(=O)O | > 100 | > 100 | > 55.4 | > 100 | > 100 | > 100 µM | > 10.5 µM | > 100 µM | > 100 | > 100 µM | > 100 µM |  |  |  |  | 
COc1ncc(C=C(C#N)C#N)c(OC)n1 | > 100 | > 100 | > 100 | 92.6 | 64.1 | > 100 µM | 86 µM | > 100 µM | > 100 | > 100 µM | 56.8 µM |  |  |  |  | 
O=C1CC(c2ccco2)C2(C(=O)NC(=O)NC2=O)C(c2ccco2)C1 (centres undefined) | > 75 | > 75 | > 75 | > 75 | > 75 | > 75 µM | > 75 µM | > 75 µM | > 75 | > 75 µM | > 75 µM |  |  |  |  | 
c1ccc([P+](CCNCCNCC[P+](c2ccccc2)(c2ccccc2)c2ccccc2)(c2ccccc2)c2ccccc2)cc1 | > 100 | > 100 | > 100 | > 100 | > 100 | > 100 µM | > 100 µM | > 100 µM | > 100 | > 100 µM | > 100 µM |  |  |  |  | 
COc1ccc(Nc2c(C#N)c3n(c4ccccc24)c2ccccc2[n+]3C)cc1OC | 6.5 | 17.8 | 41.7 | 7.21 | 17.6 | 32.5 µM | > 25.1 µM | 17.9 µM | 32.4 | > 36.9 µM | 7.23 µM |  |  |  |  | 
CO[C@@H](C(=O)OC1C=CC2(CC1)C(=O)N(C)c1ccccc12)c1ccccc1 (some centres undefined) | > 100 | > 100 | > 100 | > 100 | > 100 | > 100 µM | > 100 µM | > 100 µM | > 100 | > 100 µM | > 100 µM |  |  |  |  | 
CC(=O)NC1C(OCc2ccccc2)OC(CO)C(O)C1OCC(=O)N[C@@H](C)C(=O)N[C@H](CCC(=O)NCCNCCNc1c2ccccc2nc2cccc([N+](=O)[O-])c12)C(N)=O (some centres undefined) | > 100 | 32.7 | 78.5 | > 100 | > 100 | 40.2 µM | 73.3 µM | > 100 µM | > 100 | > 100 µM | > 100 µM |  |  |  |  | 
COc1ccc(N2C(=O)C3c4[nH]c5ccc([N+](=O)[O-])cc5c4C4CCC(C(C)(C)C)CC4C3C2=O)cc1 (centres undefined) | > 100 | > 100 | > 100 | > 100 | > 100 | > 100 µM | 89.5 µM | > 100 µM | > 100 | > 100 µM | 51.6 µM |  |  |  |  | 
[N-]=[N+]=Nc1c(Cl)c(=O)n(-c2ccccc2)c2ccccc12 | 43.7 | 30.5 | > 100 | 52.9 | > 100 | 34.7 µM | > 100 µM | 32.1 µM | > 100 | 28.9 µM | 52.6 µM |  |  |  |  | 
CCOC(=O)c1cc2c([N+](=O)[O-])c(NC(C)=O)ccc2s1 | > 100 | > 100 | > 100 | > 100 | > 100 | > 100 µM | > 100 µM | > 100 µM | > 100 | 61.2 µM | > 100 µM |  |  |  |  | 

Reference: PubChem BioAssay (NCI)
